Measurements reported in patent publication US11524968B2, “Heterocyclic compound as a protein kinase inhibitor” (HK inno.N Corporation, priority 2017, dated 2022).

Target: JAK1 (Homo sapiens (Human), UniProt P23458)
Test: Analysis of JAK1 activity inhibition ability (ADP-Glo Kinase Assay)
Type: biochemical
Details: JAK1 enzyme, ADP-Glo luminescence, ATP 250 uM, IRS-itide substrate, 30° C. 40 minutes; read-out: IC50
How it was run: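 ADP-Glo luminescence read-out of ADP production, with IC50 taken as the concentration halving JAK1 activity relative to control. Enzyme was incubated 40 min at 30 °C with compound, IRS-itide (40 ng/mL) and ATP (250 uM), concentrations as prepared in pH 7.5 Tris-HCl/MgCl2/BSA/DTT buffer.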

Chain of JAK1 (P23458 whole entry): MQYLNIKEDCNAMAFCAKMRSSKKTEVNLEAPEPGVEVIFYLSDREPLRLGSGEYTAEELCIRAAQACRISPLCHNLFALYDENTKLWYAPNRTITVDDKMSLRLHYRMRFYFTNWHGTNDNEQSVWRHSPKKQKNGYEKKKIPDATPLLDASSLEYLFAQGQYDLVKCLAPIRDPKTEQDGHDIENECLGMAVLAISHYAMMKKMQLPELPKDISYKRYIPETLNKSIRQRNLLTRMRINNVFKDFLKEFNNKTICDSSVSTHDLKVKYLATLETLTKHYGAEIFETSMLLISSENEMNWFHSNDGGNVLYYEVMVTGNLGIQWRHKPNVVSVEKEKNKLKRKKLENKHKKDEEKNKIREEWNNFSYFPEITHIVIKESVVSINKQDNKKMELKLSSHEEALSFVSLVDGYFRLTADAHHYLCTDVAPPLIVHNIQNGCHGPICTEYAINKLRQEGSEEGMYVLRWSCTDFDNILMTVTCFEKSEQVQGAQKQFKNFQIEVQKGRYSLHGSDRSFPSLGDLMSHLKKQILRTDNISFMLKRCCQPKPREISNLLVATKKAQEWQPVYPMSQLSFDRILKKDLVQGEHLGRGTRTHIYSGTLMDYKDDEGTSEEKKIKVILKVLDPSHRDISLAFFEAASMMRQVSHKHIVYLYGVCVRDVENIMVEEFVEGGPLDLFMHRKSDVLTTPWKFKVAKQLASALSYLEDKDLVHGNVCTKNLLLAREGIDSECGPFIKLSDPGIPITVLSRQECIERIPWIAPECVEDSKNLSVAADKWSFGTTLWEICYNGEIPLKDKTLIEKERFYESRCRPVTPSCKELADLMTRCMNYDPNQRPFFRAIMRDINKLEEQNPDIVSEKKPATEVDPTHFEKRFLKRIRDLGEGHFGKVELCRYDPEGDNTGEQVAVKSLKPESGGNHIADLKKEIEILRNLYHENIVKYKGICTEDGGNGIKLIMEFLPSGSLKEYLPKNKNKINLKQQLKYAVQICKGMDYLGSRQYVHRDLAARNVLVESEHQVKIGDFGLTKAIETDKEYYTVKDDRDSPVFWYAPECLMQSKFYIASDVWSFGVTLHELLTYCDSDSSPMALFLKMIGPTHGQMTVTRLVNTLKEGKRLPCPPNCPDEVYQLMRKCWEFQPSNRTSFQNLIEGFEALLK

| IC50 | SMILES |
| --- | --- |
| 20 to 200 nM | C[C@H]1CC(c2cc(NC(=O)C3CC3)nc3[nH]ccc23)=CCN1C(=O)CC#N [Example 391, (S)—N-(4-(1-(2-cyanoacetyl)-2-methyl-1,2,3,6-tetrahydropyridin-4-yl)-1H-pyrrolo[2,3-b]pyridin-6-yl)cyclopropanecarboxamide] |
| 20 to 200 nM | CC1CN(C(=O)c2ccnc(C#N)c2)CC=C1c1cc(NC(=O)C2CC2)nc2[nH]ccc12 (stereo not drawn) [Example 392, N-(4-(1-(2-cyanoisonicotinoyl)-3-methyl-1,2,3,6-tetrahydropyridin-4-yl)-1H-pyrrolo[2,3-b]pyridin-6-yl)cyclopropanecarboxamide] |
| < 20 nM | N#CCC(=O)N1CC=C(c2cc(NC(=O)C3CC3)nc3[nH]ccc23)CC1C(F)(F)F (stereo not drawn) [Example 393, N-(4-(1-(2-cyanoacetyl)-2-(trifluoromethyl)-1,2,3,6-tetrahydropyridin-4-yl)-1H-pyrrolo[2,3-b]pyridin-6-yl)cyclopropanecarboxamide] |
| < 20 nM | C[C@@H]1CN(C(=O)c2ccnc(F)c2)CC=C1c1cc(NC(=O)C2CC2)nc2[nH]ccc12 [Example 395, (S)—N-(4-(1-(2-fluoroisonicotinoyl)-3-methyl-1,2,3,6-tetrahydropyridin-4-yl)-1H-pyrrolo[2,3-b]pyridin-6-yl)cyclopropanecarboxamide] |
| < 20 nM | C[C@@H]1CN(C(=O)c2ccnc(F)c2F)CC=C1c1cc(NC(=O)C2CC2)nc2[nH]ccc12 [Example 396, (S)—N-(4-(1-(2,3-difluoroisonicotinoyl)-3-methyl-1,2,3,6-tetrahydropyridin-4-yl)-1H-pyrrolo[2,3-b]pyridin-6-yl)cyclopropanecarboxamide] |
| < 20 nM | C[C@@H]1CN(C(=O)c2cccc(Br)c2)CC=C1c1cc(NC(=O)C2CC2)nc2[nH]ccc12 [Example 397, (S)—N-(4-(1-(3-bromobenzoyl)-3-methyl-1,2,3,6-tetrahydropyridin-4-yl)-1H-pyrrolo[2,3-b]pyridin-6-yl)cyclopropanecarboxamide] |
| < 20 nM | C[C@@H]1CN(C(=O)c2ccc([N+](=O)[O-])cc2)CC=C1c1cc(NC(=O)C2CC2)nc2[nH]ccc12 [Example 398, (S)—N-(4-(3-methyl-1-(4-nitrobenzoyl)-1,2,3,6-tetrahydropyridin-4-yl)-1H-pyrrolo[2,3-b]pyridin-6-yl)cyclopropanecarboxamide] |
| < 20 nM | C[C@@H]1CN(C(=O)c2ccnc(Cl)c2)CC=C1c1cc(NC(=O)C2CC2)nc2[nH]ccc12 [Example 399, (S)—N-(4-(1-(2-chloroisonicotinoyl)-3-methyl-1,2,3,6-tetrahydropyridin-4-yl)-1H-pyrrolo[2,3-b]pyridin-6-yl)cyclopropanecarboxamide] |
| < 20 nM | C[C@@H]1CN(C(=O)c2ccc(Cl)nc2)CC=C1c1cc(NC(=O)C2CC2)nc2[nH]ccc12 [Example 400, (S)—N-(4-(1-(6-chloronicotinoyl)-3-methyl-1,2,3,6-tetrahydropyridin-4-yl)-1H-pyrrolo[2,3-b]pyridin-6-yl)cyclopropanecarboxamide] |
| 20 to 200 nM | C[C@@H]1CN(C(=O)CCl)CC=C1c1cc(NC(=O)C2CC2)nc2[nH]ccc12 [Example 401, (S)—N-(4-(1-(2-chloroacetyl)-3-methyl-1,2,3,6-tetrahydropyridin-4-yl)-1H-pyrrolo[2,3-b]pyridin-6-yl)cyclopropanecarboxamide] |
| < 20 nM | C[C@@H]1CN(C(=O)c2ccncc2F)CC=C1c1cc(NC(=O)C2CC2)nc2[nH]ccc12 [Example 402, (S)—N-(4-(1-(3-fluoroisonicotinoyl)-3-methyl-1,2,3,6-tetrahydropyridin-4-yl)-1H-pyrrolo[2,3-b]pyridin-6-yl)cyclopropanecarboxamide] |
| 20 to 200 nM | C[C@@H]1CN(C(=O)C(C#N)=Cc2cccs2)CC=C1c1cc(NC(=O)C2CC2)nc2[nH]ccc12 [Example 403, (S)—N-(4-(1-(2-cyano-3-(thiophen-2-yl)acryloyl)-3-methyl-1,2,3,6-tetrahydropyridin-4-yl)-1H-pyrrolo[2,3-b]pyridin-6-yl)cyclopropanecarboxamide] |
| 20 to 200 nM | C[C@@H]1CN(C(=O)C(=Cc2ccccc2)CC#N)CC=C1c1cc(NC(=O)C2CC2)nc2[nH]ccc12 [Example 404, (S)—N-(4-(1-(2-(cyanomethyl)-3-phenylacryloyl)-3-methyl-1,2,3,6-tetrahydropyridin-4-yl)-1H-pyrrolo[2,3-b]pyridin-6-yl)cyclopropanecarboxamide] |
| > 200 nM | C[C@@H]1CN(C(=O)c2cccn(C)c2=O)CC=C1c1cc(NC(=O)C2CC2)nc2[nH]ccc12 [Example 405, (S)—N-(4-(3-methyl-1-(1-methyl-2-oxo-1,2-dihydropyridine-3-carbonyl)-1,2,3,6-tetrahydropyridin-4-yl)-1H-pyrrolo[2,3-b]pyridin-6-yl)cyclopropanecarboxamide] |
| < 20 nM | C[C@@H]1CN(C(=O)CC2(C#N)CCCCC2)CC=C1c1cc(NC(=O)C2CC2)nc2[nH]ccc12 [Example 406, (S)—N-(4-(1-(2-(1-cyanocyclohexyl)acetyl)-3-methyl-1,2,3,6-tetrahydropyridin-4-yl)-1H-pyrrolo[2,3-b]pyridin-6-yl)cyclopropanecarboxamide] |
| 20 to 200 nM | C[C@@H]1CN(C(=O)C2(C#N)CCOCC2)CC=C1c1cc(NC(=O)C2CC2)nc2[nH]ccc12 [Example 407, (S)—N-(4-(1-(4-cyanotetrahydro-2H-pyran-4-carbonyl)-3-methyl-1,2,3,6-tetrahydropyridin-4-yl)-1H-pyrrolo[2,3-b]pyridin-6-yl)cyclopropanecarboxamide] |
| 20 to 200 nM | CC(C)=C(C#N)C(=O)N1CC=C(c2cc(NC(=O)C3CC3)nc3[nH]ccc23)[C@H](C)C1 [Example 408, (S)—N-(4-(1-(2-cyano-3-methylbut-2-enoyl)-3-methyl-1,2,3,6-tetrahydropyridin-4-yl)-1H-pyrrolo[2,3-b]pyridin-6-yl)cyclopropanecarboxamide] |
| < 20 nM | CCC1C=C(c2cc(NC(=O)C3CC3)nc3[nH]ccc23)CC(CC)N1C(=O)CC#N (stereo not drawn) [Example 409, N-(4-(1-(2-cyanoacetyl)-2,6-diethyl-1,2,3,6-tetrahydropyridin-4-yl)-1H-pyrrolo[2,3-b]pyridin-6-yl)cyclopropanecarboxamide] |
| < 20 nM | CC(C)C1CC(c2cc(NC(=O)C3CC3)nc3[nH]ccc23)=CCN1C(=O)CC#N (stereo not drawn) [Example 410, N-(4-(1-(2-cyanoacetyl)-2-isopropyl-1,2,3,6-tetrahydropyridin-4-yl)-1H-pyrrolo[2,3-b]pyridin-6-yl)cyclopropanecarboxamide] |
| 20 to 200 nM | CCCC1C=C(c2cc(NC(=O)C3CC3)nc3[nH]ccc23)CCN1C(=O)CC#N (stereo not drawn) [Example 411, N-(4-(1-(2-cyanoacetyl)-6-propyl-1,2,3,6-tetrahydropyridin-4-yl)-1H-pyrrolo[2,3-b]pyridin-6-yl)cyclopropanecarboxamide] |
| < 20 nM | CC(C)(C)C1C=C(c2cc(NC(=O)C3CC3)nc3[nH]ccc23)CCN1C(=O)CC#N (stereo not drawn) [Example 412, N-(4-(6-(tert-butyl)-1-(2-cyanoacetyl)-1,2,3,6-tetrahydropyridin-4-yl)-1H-pyrrolo[2,3-b]pyridin-6-yl)cyclopropanecarboxamide] |
| < 20 nM | CCC1CC(c2cc(NC(=O)C3CC3)nc3[nH]ccc23)=CCN1C(=O)CC#N (stereo not drawn) [Example 413, N-(4-(1-(2-cyanoacetyl)-2-ethyl-1,2,3,6-tetrahydropyridin-4-yl)-1H-pyrrolo[2,3-b]pyridin-6-yl)cyclopropanecarboxamide] |
| < 20 nM | N#CCC(=O)N1CC=C(c2cc(NC(=O)C3CC3)nc3[nH]ccc23)CC12CCC2 [Example 414, N-(4-(5-(2-cyanoacetyl)-5-azaspiro[3.5]non-7-en-8-yl)-1H-pyrrolo[2,3-b]pyridin-6-yl)cyclopropanecarboxamide] |
| < 20 nM | C[C@@H]1CN(C(=O)CC2(C#N)CC2)CC=C1c1cc(NC(=O)C2CC2)nc2[nH]ccc12 [Example 415, (S)—N-(4-(1-(2-(1-cyanocyclopropyl)acetyl)-3-methyl-1,2,3,6-tetrahydropyridin-4-yl)-1H-pyrrolo[2,3-b]pyridin-6-yl)cyclopropanecarboxamide] |
| < 20 nM | CC[C@@H]1C=C(c2cc(NC(=O)C3CC3)nc3[nH]ccc23)CCN1C(=O)CC#N [Example 416, (R)—N-(4-(1-(2-cyanoacetyl)-6-ethyl-1,2,3,6-tetrahydropyridin-4-yl)-1H-pyrrolo[2,3-b]pyridin-6-yl)cyclopropanecarboxamide] |
| > 200 nM | N#CCCC(=O)N1C=C(c2cc(NC(=O)C3CC3)nc3[nH]ccc23)CCC1 [Example 418, N-(4-(1-(3-cyanopropanoyl)-1,4,5,6-tetrahydropyridin-3-yl)-1H-pyrrolo[2,3-b]pyridin-6-yl)cyclopropanecarboxamide] |
| > 200 nM | N#CCC(=O)N1C=C(c2cc(NC(=O)C3CC3)nc3[nH]ccc23)CCC1 [Example 419, N-(4-(1-(2-cyanoacetyl)-1,4,5,6-tetrahydropyridin-3-yl)-1H-pyrrolo[2,3-b]pyridin-6-yl)cyclopropanecarboxamide] |
| 20 to 200 nM | N#CCC(=O)N1CCC=C(c2cc(NC(=O)C3CC3)nc3[nH]ccc23)C1 [Example 420, N-(4-(1-(2-cyanoacetyl)-1,2,5,6-tetrahydropyridin-3-yl)-1H-pyrrolo[2,3-b]pyridin-6-yl)cyclopropanecarboxamide] |
| 20 to 200 nM | N#CCCC(=O)N1CCC=C(c2cc(NC(=O)C3CC3)nc3[nH]ccc23)C1 [Example 421, N-(4-(1-(3-cyanopropanoyl)-1,2,5,6-tetrahydropyridin-3-yl)-1H-pyrrolo[2,3-b]pyridin-6-yl)cyclopropanecarboxamide] |

| SMILES | IC50 |
| --- | --- |
| N#CCC(=O)N1C2C=C(c3cc(NC(=O)C4CC4)nc4[nH]ccc34)CC1CCC2 (stereo not drawn) [Example 394, N-(4-(9-(2-cyanoacetyl)-9-azabicyclo[3.3.1]non-2-en-3-yl)-1H-pyrrolo[2,3-b]pyridin-6-yl)cyclopropanecarboxamide] | < 20 nM |
